Laboratory results taken from ChEMBL document CHEMBL3774384, “Synthesis of fusidic acid bioisosteres as antiplasmodial agents and molecular docking studies in the binding site of elongation factor-G” (Medchemcomm, 2015).

Assays:
[1] = system: Plasmodium falciparum; assay: Antiplasmodial activity against chloroquine sensitive Plasmodium falciparum NF54 infected in human RBC after 48 hrs by [3H]hypoxanthine incorporation assay; type: functional, organism-based
[2] = system: CHO; assay: Cytotoxicity against CHO assessed as cell viability after 48 hrs by MTT assay; type: cell-based; conditions: Cricetulus griseus
[3] = Selectivity index, ratio of IC50 for CHO cells to IC50 for Plasmodium falciparum NF54; type: toxicity, cell-based; conditions: hamster, read-out: Ratio IC50
[4] = system: Plasmodium falciparum; assay: Antiplasmodial activity against Plasmodium falciparum D10 infected in human RBC after 48 to 96 hrs by SYBR Green I dye-based fluorescence assay; type: functional, organism-based
[5] = Stability in RPMI medium supplemented with HEPES, NaHCO3, Neomycin and Albumax II after 48 hrs; type: physicochemical

Compound	IC50 [1] [µM]	IC50 [2] [µM]	selectivity ratio [3]	IC50 [4] [µM]	Stability [5]
CC(=O)O[C@H]1C[C@@]2(C)[C@@H](C[C@@H](O)[C@H]3[C@@]4(C)CC[C@@H](O)[C@@H](C)[C@@H]4CC[C@@]32C)/C1=C(\CCC=C(C)C)C(=O)NS(C)(=O)=O	> 15	> 169	–	–	–
CCc1noc(/C(CCC=C(C)C)=C2\[C@@H](OC(C)=O)C[C@@]3(C)[C@H]2C[C@@H](O)[C@H]2[C@@]4(C)CC[C@@H](O)[C@@H](C)[C@@H]4CC[C@@]23C)n1	1.9	71.7	38	–	–
CC(=O)O[C@H]1C[C@@]2(C)[C@@H](C[C@@H](O)[C@H]3[C@@]4(C)CC[C@@H](O)[C@@H](C)[C@@H]4CC[C@@]32C)/C1=C(\CCC=C(C)C)c1nc(-c2ccc(F)cc2)no1	1.7	77.4	46	–	–
CC(=O)O[C@H]1C[C@@]2(C)[C@@H](C[C@@H](O)[C@H]3[C@@]4(C)CC[C@@H](O)[C@@H](C)[C@@H]4CC[C@@]32C)/C1=C(\CCC=C(C)C)C(=O)NNS(=O)(=O)c1ccc(Cl)cc1	31.3	53.2	2	–	–
CC(=O)O[C@H]1C[C@@]2(C)[C@@H](C[C@@H](O)[C@H]3[C@@]4(C)CC[C@@H](O)[C@@H](C)[C@@H]4CC[C@@]32C)/C1=C(\CCC=C(C)C)c1nc(C)no1	3.8	47.8	13	–	–
CCCCS(=O)(=O)NNC(=O)/C(CCC=C(C)C)=C1\[C@@H](OC(C)=O)C[C@@]2(C)[C@H]1C[C@@H](O)[C@H]1[C@@]3(C)CC[C@@H](O)[C@@H](C)[C@@H]3CC[C@@]12C	8	49.9	6	–	–
C[C@H]1[C@H](OC(=O)CCC(=O)O)O[C@@H]2O[C@@]3(C)CC[C@H]4[C@H](C)CC[C@@H]1[C@@]24OO3 [ARTESUNATE]	0.004	–	–	–	–
CCCS(=O)(=O)NNC(=O)/C(CCC=C(C)C)=C1\[C@@H](OC(C)=O)C[C@@]2(C)[C@H]1C[C@@H](O)[C@H]1[C@@]3(C)CC[C@@H](O)[C@@H](C)[C@@H]3CC[C@@]12C	5.7	79.7	14	–	–
CC(=O)O[C@H]1C[C@@]2(C)[C@@H](C[C@@H](O)[C@H]3[C@@]4(C)CC[C@@H](O)[C@@H](C)[C@@H]4CC[C@@]32C)/C1=C(\CCC=C(C)C)c1n[nH]c(=O)o1	9.2	82	9	–	–
CC(=O)O[C@H]1C[C@@]2(C)[C@@H](C[C@@H](O)[C@H]3[C@@]4(C)CC[C@@H](O)[C@@H](C)[C@@H]4CC[C@@]32C)/C1=C(\CCC=C(C)C)C(=O)NNC(=O)c1cccs1	8.4	78.8	9	–	–
CC(=O)O[C@H]1C[C@@]2(C)[C@@H](C[C@@H](O)[C@H]3[C@@]4(C)CC[C@@H](O)[C@@H](C)[C@@H]4CC[C@@]32C)/C1=C(\CCC=C(C)C)C(=O)NS(=O)(=O)c1ccccc1	> 15	96.1	–	–	–
CC(=O)O[C@H]1C[C@@]2(C)[C@@H](C[C@@H](O)[C@H]3[C@@]4(C)CC[C@@H](O)[C@@H](C)[C@@H]4CC[C@@]32C)/C1=C(\CCC=C(C)C)C(=O)O [FUSIDIC ACID]	59	> 194	> 3	52.8	Stable

More lines, main results first:

IC50 [1] [µM]	Compound	IC50 [2] [µM]	selectivity ratio [3]	IC50 [4] [µM]	Stability [5]
7.3	CC(=O)O[C@H]1C[C@@]2(C)[C@@H](C[C@@H](O)[C@H]3[C@@]4(C)CC[C@@H](O)[C@@H](C)[C@@H]4CC[C@@]32C)/C1=C(\CCC=C(C)C)C(=O)NS(=O)(=O)c1ccc(F)c(F)c1	81.4	11	–	–
7	CC(=O)O[C@H]1C[C@@]2(C)[C@@H](C[C@@H](O)[C@H]3[C@@]4(C)CC[C@@H](O)[C@@H](C)[C@@H]4CC[C@@]32C)/C1=C(\CCC=C(C)C)c1n[nH]c(=S)o1	70	10	–	–
21.3	CC(=O)O[C@H]1C[C@@]2(C)[C@@H](C[C@@H](O)[C@H]3[C@@]4(C)CC[C@@H](O)[C@@H](C)[C@@H]4CC[C@@]32C)/C1=C(\CCC=C(C)C)C(=O)NN	112	5	–	–
10.8	CC(=O)O[C@H]1C[C@@]2(C)[C@@H](C[C@@H](O)[C@H]3[C@@]4(C)CC[C@@H](O)[C@@H](C)[C@@H]4CC[C@@]32C)/C1=C(\CCC=C(C)C)C(=O)NC#N	> 185	> 17	–	–
> 15	CC(=O)O[C@H]1C[C@@]2(C)[C@@H](C[C@@H](O)[C@H]3[C@@]4(C)CC[C@@H](O)[C@@H](C)[C@@H]4CC[C@@]32C)/C1=C(\CCC=C(C)C)C(=O)Nc1nn[nH]n1	> 171	–	–	–
12.4	CCS(=O)(=O)NNC(=O)/C(CCC=C(C)C)=C1\[C@@H](OC(C)=O)C[C@@]2(C)[C@H]1C[C@@H](O)[C@H]1[C@@]3(C)CC[C@@H](O)[C@@H](C)[C@@H]3CC[C@@]12C	77.3	6	–	–
35.9	CC(=O)O[C@H]1C[C@@]2(C)[C@@H](C[C@@H](O)[C@H]3[C@@]4(C)CC[C@@H](O)[C@@H](C)[C@@H]4CC[C@@]32C)/C1=C(\CCC=C(C)C)C(N)=O	113	3	–	–
2.1	CCCc1noc(/C(CCC=C(C)C)=C2\[C@@H](OC(C)=O)C[C@@]3(C)[C@H]2C[C@@H](O)[C@H]2[C@@]4(C)CC[C@@H](O)[C@@H](C)[C@@H]4CC[C@@]23C)n1	68.2	32	–	–
13.4	CC(=O)O[C@H]1C[C@@]2(C)[C@@H](C[C@@H](O)[C@H]3[C@@]4(C)CC[C@@H](O)[C@@H](C)[C@@H]4CC[C@@]32C)/C1=C(\CCC=C(C)C)C(=O)NNS(=O)(=O)c1ccc(C)cc1	48.2	4	–	–
